Source: patent US20140322227A1, “PEPTIDES FOR TREATMENT OF BONE DEFICIENCY AND AUTOIMMUNE DISORDERS” (H. LEE MOFFITT CANCER CENTER & RESEARCH INSTITUTE, INC., priority 2013, published 2014)
Numbered stars: 1 amine (or outer) side, 2 acyl side, 3 side chain; on linkers, the order of the positions; unused ones are H or OH. Bridge positions count the residues as written; N and C are the ends. Square brackets hold non-standard residues; d marks the D form. Peptide text beside a SMILES is read from it. * marks the point of attachment. dProlinol(O-CH2CO) = O=C(COC[C@H]1CCCN1[*:1])[*:2]; N(2-Aminoethyl)Gly = O=C(CN(CCN[*:3])[*:1])[*:2]; Nle = CCCC[C@H](N)C(=O)O; Ms = CS(=O)(=O)*

Assays:
[1] = Stability of MTI-101 in plasma (dog); assay type: in vitro ADME
[2] = Stability of MTI-101 in plasma (rat); assay type: in vitro ADME
[3] = test system: RAW 264.7 cells; test: Annexin V flow cytometry cell death assay in RAW 264.7 cells; assay type: cell-based, murine
Procedure: FIGS. 5A-5D show the effect of a cyclic HYD1 peptide (MTI-101) on RAW 264.7 cells (FIGS. 5A and 5B) and on RAW 264.7 cell-differentiated osteoclasts (FIGS. 5C and 5D). RAW 264.7 cells were treated with 6.25 to 50 μM MTI-101 and at the end of 24 hrs the cells were scrapped and spun down. After a single wash the cells were stained with Annexin V-FITC dye. The resulting Annexin V positivity was determined using Calibur Flow cytometry. RAW 264.7 cells were treated with 6.25 to 50 μM and incubated for 72 hrs. At the end of the incubation 2 mg/ml of 3-(4,5-dimethythiazol-2-yl)-2,5-diphenyl tetrazolium bromide (MTT). After 4 hours incubation, the resulting formazan product was solubilized by addition of DMSO and the resulting color was measured by a plate reader. […] For quantification, the cells in each treated well were manually counted using a light microscope (FIG. 5C). […]
FIGS. 6A-6C show the effect of cyclic peptide (MTI-101) on RAW 264.7 cells and on RAW 264.7 cell-differentiated osteoclasts. […] The resulting Annexin V positivity was determined using Calibur Flow cytometry. […] After 4 hours incubation the resulting formazan product was solubilized by addition of DMSO and the resulting color was measured by a plate reader. […] For quantification, the cells in each treated well were manually counted using a light microscope. […]

[4] = Stability of MTI-101 in plasma (mouse); assay type: in vitro ADME; conditions: room temperature
[5] = reported; independent of the direct effect on the myeloma cell; cited from earlier work
[6] = test system: tumor bearing tibias; test: Bone density (BV/TV) of tumor bearing tibias by CT scanning in myeloma model; assay type: in vivo; conditions: compared to vehicle control (VC) treated tumor bearing mice
Procedure: FIG. 43. MTI-101 treated mice show increased trabecular bone density compared to tumor-bearing vehicle control-treated mice (VC). The same 10 tibia bones imaged by Faxitron in FIG. 43 were imaged with a Micro PET/SPECT/CT (Siemens Inveon). After imaging, the bones were reconstructed using COBRA (Constraint Based Reconstruction and Analysis) and analyzed with the Siemens Inveon workstation. 30 separate longitudinal images for each tibia were measured for both bone volume and total volume with the indicated parameters (2 mm below growth plate to 2 mm above junction with fibula). All 30 images were combined and the tibia were analyzed by bone volume/total volume (BV/TV). Images of the control group were compared to both MTI-101 and bortezomib treated mice. […] The same bones that were assayed for tumor volume in FIG. 43 were used to determine bone density by CT scanning.

[7] = 4 degrees Celsius, read-out: Stability - 24 Hour 4 Degrees Celsius
[8] = room temperature, read-out: Stability - 24 Hour Room Temperature

Row | SMILES | remaining at 24 h [1, 7] [%] | remaining at 24 h [1, 8] [%] | remaining at 24 h [2, 7] [%] | remaining at 24 h [2, 8] [%] | cell death (Annexin V positivity) ([3]; multiple dosing 6.25 to 50 μM on days 1, 3 and 5, read day 7) | cell death (Annexin V positivity) ([3]; single treatment 6.25 to 50 μM, 24 hrs) | remaining at 24 h [4] [%] | bone anabolic effects [5] | bone density (bone volume/total volume, BV/TV) [6]
1 | CCCC[C@@H]1NC(=O)CN(S(C)(=O)=O)CCNC(=O)[C@H](CCCCN)NC(=O)[C@H](CC(C)C)NC(=O)[C@H](CCCCN)NC(=O)[C@H](CC(C)C)NC(=O)[C@H](CCCCN)NC(=O)COC[C@H]2CCCN2C(=O)[C@H](Cc2c[nH]c3ccccc23)NC(=O)[C@H](C)NC(=O)[C@H](C(C)C)NC(=O)[C@H](C(C)C)NC1=O [MTI-101] (Ms-[N(2-Aminoethyl)Gly][Nle]VVAW[dProlinol(O-CH2CO)]KLKLK; lactam 1-C) | 83 | 67 | 94 | 90 | nor did it induce cell death | nor did it induce cell death | 85 |  | 
2 | CC(C)C[C@H](NC(=O)[C@H](Cc1ccccc1)NC(=O)c1cnccn1)B(O)O [bortezomib] |  |  |  |  |  |  |  | induce bone anabolic effects | increased bone density
3 | CC(C)C[C@H](NC(=O)[C@H](CCc1ccccc1)NC(=O)CN1CCOCC1)C(=O)N[C@@H](Cc1ccccc1)C(=O)N[C@@H](CC(C)C)C(=O)[C@@]1(C)CO1 [carfilzomib] |  |  |  |  |  |  |  | induce bone anabolic effects | 
